In patent publication US20240358693A1, “METHODS OF TREATING PAIN” (Aisa Pharma, Inc., priority 2023, published 2024):

Tested on: participants with SSc-RP
Test: Average severity of weekly RP attacks (VAS 0-10 cm scale)
Assay type: in vivo, human
Description: The absolute change in average severity of weekly RP attacks (VAS 0-10 cm scale) from baseline to the end of each Dosing Period was and will be a secondary outcome variable. The sponsor-developed participant-informed diary will be used to record data. Average severity of weekly RP attacks is defined as the total severity scores of RP attacks divided by total number of RP attacks within the last 7 days of each dosing period. Total severity scores of RP attacks during the last 7 days of screening period divided by the total number of RP attacks will be used as baseline for the analysis of all periods. The variable will be calculated similar to frequency data as before.

[1] = Pooled Cilnidipine 10 mg and Cilnidipine 10 mg + Tadalafil 5 mg, n=1, by Baseline RCS, second subgroup, ITT Population - Part A
[2] = Pooled Cilnidipine 10 mg and Cilnidipine 10 mg + Tadalafil 5 mg, n=2, by Baseline RCS, first subgroup, ITT Population - Part A
[3] = Pooled Cilnidipine 10 mg and Cilnidipine 10 mg + Tadalafil 5 mg, n=3, Excluding Outliers, ITT Population - Part A
[4] = Pooled Cilnidipine 10 mg and Cilnidipine 10 mg + Tadalafil 5 mg, n=3, ITT Population - Part A
[5] = Pooled Cilnidipine 10 mg and Cilnidipine 10 mg + Tadalafil 5 mg, Excluding Outliers, ITT Population - Part A
[6] = Pooled Cilnidipine 10 mg and Cilnidipine 10 mg + Tadalafil 5 mg, Excluding Outliers, by Baseline RCS, first subgroup, ITT Population - Part A
[7] = Pooled Cilnidipine 10 mg and Cilnidipine 10 mg + Tadalafil 5 mg, Excluding Outliers, by Baseline RCS, second subgroup, ITT Population - Part A
[8] = Pooled Cilnidipine 10 mg and Cilnidipine 10 mg + Tadalafil 5 mg, ITT Population - Part A
[9] = Pooled Cilnidipine 10 mg and Cilnidipine 10 mg + Tadalafil 5 mg, first Baseline RCS subgroup block (not named), ITT Part A
[10] = Pooled Cilnidipine 10 mg and Cilnidipine 10 mg + Tadalafil 5 mg, first Baseline RCS subgroup block (not named), ITT Part A, score 0-10
[11] = Pooled Cilnidipine 10 mg and Cilnidipine 10 mg + Tadalafil 5 mg, second Baseline RCS subgroup block (not named), ITT Part A
[12] = Pooled Cilnidipine 10 mg and Cilnidipine 10 mg + Tadalafil 5 mg, second Baseline RCS subgroup block (not named), ITT Part A, score 0-10
[13] = Pooled Cilnidipine 20 mg and Cilnidipine 20 mg + Tadalafil 5 mg, n=1, by Baseline RCS, second subgroup, ITT Population - Part A
[14] = Pooled Cilnidipine 20 mg and Cilnidipine 20 mg + Tadalafil 5 mg, n=3, by Baseline RCS, first subgroup, ITT Population - Part A

## COCCOC(=O)C1=C(C)NC(C)=C(C(=O)OC/C=C/c2ccccc2)C1c1cccc([N+](=O)[O-])c1 (stereo not shown) [Cilnidipine, cilnidipine]
Pooled (over cilnidipine doses), ITT Population - Part A
  Average Severity of Weekly RP Attacks (All Attacks), Percent Change from Baseline, Median: −7.69%
[1]
  Average Severity (0-10) of Weekly Symptomatic RP Attacks, Mean: 5.23
  Average Severity (0-10) of Weekly Symptomatic RP Attacks, Median: 5.23
  Average Severity of Weekly Symptomatic RP Attacks, Change from Baseline, Mean: −1.13
  Average Severity of Weekly Symptomatic RP Attacks, Change from Baseline, Median: −1.13
  Average Severity of Weekly Symptomatic RP Attacks, Percent Change from Baseline, Mean: −17.81%
  Average Severity of Weekly Symptomatic RP Attacks, Percent Change from Baseline, Median: −17.81%
[2]
  Average Severity (0-10) of Weekly Symptomatic RP Attacks, Mean: 3.34
  Average Severity (0-10) of Weekly Symptomatic RP Attacks, Median: 3.34
  Average Severity of Weekly Symptomatic RP Attacks, Change from Baseline, Mean: −1.22
  Average Severity of Weekly Symptomatic RP Attacks, Change from Baseline, Median: −1.22
  Average Severity of Weekly Symptomatic RP Attacks, Percent Change from Baseline, Mean: −20.18%
  Average Severity of Weekly Symptomatic RP Attacks, Percent Change from Baseline, Median: −20.18%
[3]
  Average Severity (0-10) of Weekly Symptomatic RP Attacks, Mean: 3.97
  Average Severity (0-10) of Weekly Symptomatic RP Attacks, Median: 3.77
  Average Severity of Weekly Symptomatic RP Attacks, Change from Baseline, Mean: −1.19
  Average Severity of Weekly Symptomatic RP Attacks, Change from Baseline, Median: −1.13
  Average Severity of Weekly Symptomatic RP Attacks, Percent Change from Baseline, Mean: −19.39%
  Average Severity of Weekly Symptomatic RP Attacks, Percent Change from Baseline, Median: −17.81%
[4]
  Average Severity (0-10) of Weekly Symptomatic RP Attacks, Mean: 3.97
  Average Severity (0-10) of Weekly Symptomatic RP Attacks, Median: 3.77
  Average Severity of Weekly Symptomatic RP Attacks, Change from Baseline, Mean: −1.19
  Average Severity of Weekly Symptomatic RP Attacks, Change from Baseline, Median: −1.13
  Average Severity of Weekly Symptomatic RP Attacks, Percent Change from Baseline, Mean: −19.39%
  Average Severity of Weekly Symptomatic RP Attacks, Percent Change from Baseline, Median: −17.81%
[5]
  Average Severity of Weekly RP Attacks (All Attacks), Change from Baseline, Mean: −1.34
  Average Severity of Weekly RP Attacks (All Attacks), Change from Baseline, Median: −1.32
  Average Severity of Weekly RP Attacks (All Attacks), Mean: 3.62
  Average Severity of Weekly RP Attacks (All Attacks), Median: 3.05
  Average Severity of Weekly RP Attacks (All Attacks), Percent Change from Baseline, Mean: −23.02%
  Average Severity of Weekly RP Attacks (All Attacks), Percent Change from Baseline, Median: −21.20%
[6]
  Average Severity of Weekly Symptomatic RP Attacks (Mean): 3.34
  Average Severity of Weekly Symptomatic RP Attacks (Median): 3.34
  Average Severity of Weekly Symptomatic RP Attacks, Change from Baseline, Mean: −1.22
  Average Severity of Weekly Symptomatic RP Attacks, Change from Baseline, Median: −1.22
  Average Severity of Weekly Symptomatic RP Attacks, Percent Change from Baseline, Mean: −20.18%
  Average Severity of Weekly Symptomatic RP Attacks, Percent Change from Baseline, Median: −20.18%
[7]
  Average Severity of Weekly Symptomatic RP Attacks (Mean): 5.23
  Average Severity of Weekly Symptomatic RP Attacks (Median): 5.23
  Average Severity of Weekly Symptomatic RP Attacks, Change from Baseline, Mean: −1.13
  Average Severity of Weekly Symptomatic RP Attacks, Change from Baseline, Median: −1.13
  Average Severity of Weekly Symptomatic RP Attacks, Percent Change from Baseline, Mean: −17.81%
  Average Severity of Weekly Symptomatic RP Attacks, Percent Change from Baseline, Median: −17.81%
[8]
  Average Severity of Weekly RP Attacks (All Attacks), Change from Baseline, Mean: −1.34
  Average Severity of Weekly RP Attacks (All Attacks), Change from Baseline, Median: −1.32
  Average Severity of Weekly RP Attacks (All Attacks), Mean: 3.62
  Average Severity of Weekly RP Attacks (All Attacks), Median: 3.05
  Average Severity of Weekly RP Attacks (All Attacks), Percent Change from Baseline, Mean: −23.02%
  Average Severity of Weekly RP Attacks (All Attacks), Percent Change from Baseline, Median: −21.20%
[9]
  Average Severity of Weekly RP Attacks (All Attacks), Percent Change from Baseline, Mean: −23.94%
  Average Severity of Weekly RP Attacks (All Attacks), Percent Change from Baseline, Median: −23.94%
[10]
  Average Severity of Weekly RP Attacks (All Attacks), Change from Baseline, Mean: −1.35
  Average Severity of Weekly RP Attacks (All Attacks), Change from Baseline, Median: −1.35
  Average Severity of Weekly RP Attacks (All Attacks), Mean: 2.97
  Average Severity of Weekly RP Attacks (All Attacks), Median: 2.97
[11]
  Average Severity of Weekly RP Attacks (All Attacks), Percent Change from Baseline, Mean: −21.20%
  Average Severity of Weekly RP Attacks (All Attacks), Percent Change from Baseline, Median: −21.20%
[12]
  Average Severity of Weekly RP Attacks (All Attacks), Change from Baseline, Mean: −1.32
  Average Severity of Weekly RP Attacks (All Attacks), Change from Baseline, Median: −1.32
  Average Severity of Weekly RP Attacks (All Attacks), Mean: 4.90
  Average Severity of Weekly RP Attacks (All Attacks), Median: 4.90
[13]
  Average Severity (0-10) of Weekly Symptomatic RP Attacks, Mean: 5.06
  Average Severity (0-10) of Weekly Symptomatic RP Attacks, Median: 5.06
  Average Severity of Weekly Symptomatic RP Attacks, Change from Baseline, Mean: −1.79
  Average Severity of Weekly Symptomatic RP Attacks, Change from Baseline, Median: −1.79
  Average Severity of Weekly Symptomatic RP Attacks, Percent Change from Baseline, Mean: −26.14%
  Average Severity of Weekly Symptomatic RP Attacks, Percent Change from Baseline, Median: −26.14%
[14]
  Average Severity (0-10) of Weekly Symptomatic RP Attacks, Mean: 2.85
  Average Severity (0-10) of Weekly Symptomatic RP Attacks, Median: 2.40
  Average Severity of Weekly Symptomatic RP Attacks, Change from Baseline, Mean: −1.06
  Average Severity of Weekly Symptomatic RP Attacks, Change from Baseline, Median: −0.33
  Average Severity of Weekly Symptomatic RP Attacks, Percent Change from Baseline, Mean: −24.28%
  Average Severity of Weekly Symptomatic RP Attacks, Percent Change from Baseline, Median: −12.02%
